SMILES strings stand for the structures. Where “and” joins values, the source holds several entries; their conditions need not be identical. Equal values may be shown once. Entries after “also recorded” stand apart in the source; their conditions may differ.

Data set [1] in a line: Hydrodynamic diameter and polydispersity of LNPs by dynamic light scattering (DLS), Zetasizer. It counts as physicochemical. The procedure: (§1) Samples of the LNPs produced in Example 2 were characterized to determine the average hydrodynamic diameter, zeta potential, and mRNA content (total and dye-accessible). The hydrodynamic diameter was determined by dynamic light scattering (DLS) using a Zetasizer model ZEN3600 (Malvern Pananalytical, UK). The zeta potential was measured in 5 mM pH 5.5 MES buffer and 5 mM pH 7.4 HEPES buffer by laser Doppler electrophoresis using the Zetasizer.

Data set [2] in a line: Zeta potential of LNPs by laser Doppler electrophoresis in 5 mM pH 5.5 MES and 5 mM pH 7.4 HEPES buffer. Particulars: pH 5.5 MES and pH 7.4 HEPES buffer. It counts as physicochemical. Here is the method:
as §1

The nature of data set [3]: Quant-iT RiboGreen RNA assay: dye accessible and total (Triton) mRNA content, encapsulation. It counts as physicochemical. Here is the method: RNA content of the nanoparticles is measured using Thermo Fisher Quant-iT RiboGreen RNA Assay Kit. Dye accessible RNA, which includes both non-incorporated RNA and RNA that is near the surface of the nanoparticle, is measured by diluting the nanoparticles to approximately 1 μg/mL mRNA using HEPES buffered saline, and then adding Quant-iT reagent to the mixture. Total RNA content is measured by diluting the particles to 1 μg/mL mRNA using HEPES buffered saline, disrupting the nanoparticles by heating them to 60° C. for 30 minutes in HEPES buffered saline containing 0.5% Triton, and then adding Quant-It reagent. RNA is quantified by measuring fluorescence at 485/535 nm, and concentration is determined relative to a contemporaneously run RNA standard curve.

Data set [4] deals with primary human T-cells (CD3+ T cells). As to the kind of experiment: In vitro LNP transfection of primary human T-cells (GFP, Cy5 or DiI, viability by FACS). It counts as cell-based. The settings on record: for GFP protein expression (% GFP+ cells, GFP MFI), in words: hSP34 targeted LNP with GFP mRNA; for GFP protein expression (% GFP+ cells, GFP MFI), in words / T-cell viability / tolerability, in words / LNP association with cells (% Cy5+/Cy5 MFI or % DiI+/DiI MFI), in words: 24 hours; for T-cell viability / tolerability, in words / LNP association with cells (% Cy5+/Cy5 MFI or % DiI+/DiI MFI), in words: hSP34 targeted LNP; for T-cell viability / tolerability, in words: dose as in the value; for T-cell viability (% live): PBS control about 50%. The text has this:
This example describes the protocol used for in vitro LNP transfections in primary human T-cells. This method is used to assess LNP in vitro efficacy in relevant target cells (CD3+ T cells) by first transfecting the cells using LNPs loaded with mRNA encoding for a reporter gene, such as GFP mRNA, and then assessing transfection by measuring reporter gene expression by fluorescence-[…] cell sorting (FACS). Additionally, particle association with cells may be observed by in the same assay by labeling individual nanoparticle components, such as the mRNA, with a fluorescent dye, such as Cy5, and then observing cell/dye association by FACS.
CD3+ T cells were isolated from frozen peripheral blood mononuclear cells using an EasySep Human T Cell Isolation Kit on a RoboSep automated cell isolation system from […]. T cells were plated into a flat bottom 96-well plate in RPMI cell culture media supplemented with glutamax, 10% fetal bovine serum, and 40 ng/mL IL2. 100 μL of cell suspension was seeded per well at a density of 1M T cells/mL (100K T cells/well). Cells were allowed to rest for two hours in a 37° C. incubator, and then were transfected by gently adding 10 μL of a 22 μg/mL (by mRNA) nanoparticle suspension, resulting in a final mRNA concentration of 2 μg/mL. Cells were gently mixed with a pipette and then incubated for 24 hours in a 37° C. incubator. After incubation the cells were analyzed using an ThermoFisher Attune NXT flow cytometer. Cy5 was detected using a 638 nm laser with 670/14 nm filter. eGFP was detected using a 488 nm laser and a 530/30 nm filter. Data were analyzed using FlowJo software from BD biosciences. FACS data were first gated to exclude doublets and dead cells and then gated for GFP and Cy5. Gates for GFP+ and Cy5+were set such that a control sample (PBS treated T cells) was <0.1% positive.
CD3+ T cells were isolated from frozen peripheral blood mononuclear cells using an EasySep Human T Cell Isolation Kit on a RoboSep automated cell isolation system from […]. T cells were plated into a round bottom 96-well plate in RPMI cell culture media supplemented with glutamax, 10% fetal bovine serum, pen-strep, and 40 ng/mL IL-2. 100 μL of cell suspension was seeded per well at a density of 1M T cells/mL (100K T cells/well). Cells were allowed to rest for two hours in a 37° C. incubator, and then were transfected by gently adding 10 μL of a 22 μg/mL (by mRNA) nanoparticle suspension, resulting in a final mRNA concentration of 2 μg/mL (unless otherwise noted). Cells were gently mixed with a pipette and then incubated for 24 hours in a 37° C. incubator. After incubation the cells were diluted with FACS buffer (BD 554657) and analyzed using a BD Fortessa flow cytometer. Data were analyzed using FlowJo software from BD biosciences.

Data set [5] is described as follows: Apparent pKa of LNPs by TNS fluorescent probe. It counts as physicochemical. The settings on record: LNP made with the named ionizable lipid; pH at 50% of maximum TNS fluorescence. The text has this:
This example describes the fluorescent dye based method used for measurement of the apparent pKa of the lipid nanoparticles. Apparent pKa determines the nanoparticle surface charge under physiological pH conditions, typically a pKa value in the endosomal pH range (6-7.4) results in LNPs that are neutral or slightly charged at plasma or the extracellular space (pH 7.4) and become strongly positive under acidic endosomal environments. This positive surface charge drives fusion of the LNP surface with negatively charged endosomal membranes resulting in destabilization and rupture of the endosomal compartment and LNP escape into the cytosolic compartment, a critical step in cytosolic delivery of mRNA and protein expression via engagement of the cells ribosomal machinery.
The apparent pKa of LNPs made using ionizable Lipids 2, 5 (synthesized as described in example 1), 6 and 7 (synthesized using method analogous to Lipid 2, 5, respectively, except using diethyl amine instead of dimethyl amine to incorporate the tertiary amine head group) were determined by 6-(p-Toluidino)-2-naphthalenesulfonic acid (TNS) fluorescence measurement in aqueous buffers covering a range of pH values (pH 4-pH 10). TNS is non-fluorescent when free in solution, but which fluoresces strongly when associated with a positively charged lipid nanoparticle. At a pH values below the pKa of the nanoparticle, positive LNP surface charge results in dye recruitment at the particle interface resulting in TNS fluorescence. At pH values above the LNP pKa no fluorescence is observed. The apparent pKa of the LNP is reported as the pH at which the fluorescence is at 50% of its maximum, as determined using a four-point logistic curve fit.

Setting [6] is: Table 11A: Lipid 5, Lipid 8 and DLn-MC3-DMA LNP, vortexer mixing, theoretical total mRNA 42.5 ug/mL.
Where [7] appears, read: Table 11A: vortexer mixing, theoretical total mRNA 42.5 ug/mL.
Setting [8] is: Table 25: Lipid 8 and Lipid 5 LNP, theoretical total mRNA 45 ug/mL.
[9] abbreviates: Table 10: Lipid 5 and Lipid 7 LNP, theoretical total mRNA 50 μg/mL.

For the molecule `CCCCC/C=C\C/C=C\CCCCCCCCC(CCCCCCCC/C=C\C/C=C\CCCCC)OC(=O)CCCN(C)C` [DLn-MC3-DMA, DLin-MC3-DMA, reference compound], the “polydispersity after antibody conjugate insertion” value in data set [1] is listed as 0.2. Also, the “LNP surface charge (zeta potential), in words” value in data set [2] was “positive zeta potential at pH 5.5, and either near neutral or slightly negative charge at pH 7.4”. Also, the “Measured total (Triton method) mRNA” value in data set [3] (setting [6]) worked out at 33 µg/mL. Besides, the “Ribogreen Dye Accessible mRNA” value in data set [3] (setting [7]) turned out to be 2 µg/mL. Moreover, in data set [4], the “GFP protein expression (% GFP+ cells, GFP MFI), in words” value is on record as “failed to express GFP protein” and the “T-cell viability / tolerability, in words” value is listed as “better tolerated at higher doses”.

Consider `CCCCC/C=C\C/C=C\CCCCCCCC(=O)OC[C@H](COC(=O)CCCN(C)C)OC(=O)CCCCCCC/C=C\C/C=C\CCCCC` [Lipid 2], for which the “apparent pKa of LNP (TNS)” value in data set [5] amounted to 7.5. The “T-cell viability / tolerability, in words” value in data set [4] is “well tolerated by T-cells at all LNP doses tested”.

Consider `CCCCC/C=C\C/C=C\CCCCCCCC(=O)OC[C@H](CCN(C)C)OC(=O)CCCCCCC/C=C\C/C=C\CCCCC` [Lipid 5 (N)], for which, in data set [3] (setting [8]), the “Measured total (Triton method) mRNA” value came out at 36 µg/mL and the “Ribogreen Dye Accessible mRNA” value amounted to 7 µg/mL.

Take `CCCCC/C=C\C/C=C\CCCCCCCC(=O)OC[C@H](CCN(C)C)OC(=O)CCCCCCC/C=C\C/C=C\CCCCC` [Lipid 5 (O)]: in data set [3] (setting [8]), the “Measured total (Triton method) mRNA” value was 38 µg/mL and the “Ribogreen Dye Accessible mRNA” value is 7 µg/mL.

Take `CCCCC/C=C\C/C=C\CCCCCCCC(=O)OCC(CCN(CC)CC)OC(=O)CCCCCCC/C=C\C/C=C\CCCCC` (stereo not shown) [Lipid 7]: the “% Dye Accessible mRNA” value in data set [3] (Table 10: Lipid 5 and Lipid 7 LNP) is 14%. In data set [3] (setting [9]), the “Measured total (Triton method) mRNA” value was determined as 43 µg/mL and the “Ribogreen Dye Accessible mRNA” value stood at 6 µg/mL. The “apparent pKa of LNP (TNS)” value in data set [5] is ~6.3 and ~6.4. In data set [4], the “GFP protein expression (% GFP+ cells, GFP MFI), in words” value is given as “Dose dependent expression of GFP protein; also recorded: significantly lower level of GFP protein expression relative to Lipid 5 LNP formulation”; the “LNP association with cells (% Cy5+/Cy5 MFI or % DiI+/DiI MFI), in words” value is on record as “equally associated with cells”; the “T-cell viability / tolerability, in words” value is “well tolerated by T-cells at and below 0.5 μg/mL dose”.

On to `CCCCC/C=C\C/C=C\CCCCCCCCC1(CCCCCCCC/C=C\C/C=C\CCCCC)OCC(CCN(C)C)O1` (stereo not shown) [Lipid 8, reference compound], for which, in data set [1], the “polydispersity after antibody conjugate insertion” value stood at 0.2. In data set [2], the “LNP surface charge (zeta potential), in words” value is “positive zeta potential at pH 5.5, and either near neutral or slightly negative charge at pH 7.4”. In data set [3] (setting [6]), the “Measured total (Triton method) mRNA” value was found to be 30 µg/mL. For the same molecule, the “Ribogreen Dye Accessible mRNA” value in data set [3] (setting [7]) came out at 3 µg/mL. For the same molecule, in data set [3] (setting [8]), the “Measured total (Triton method) mRNA” value stood at 40 µg/mL and the “Ribogreen Dye Accessible mRNA” value was determined as 4 µg/mL. For the same molecule, in data set [4] (0.125 ug mRNA/mL per well), the “T-cell viability (% live)” value is reported as “about 45%”. Besides, the “T-cell viability (% live)” value in data set [4] (2 ug mRNA/mL per well) is recorded as “about 25%”. In data set [4], the “GFP protein expression (% GFP+ cells, GFP MFI), in words” value was “Dose dependent expression of GFP protein”; the “LNP association with cells (% Cy5+/Cy5 MFI or % DiI+/DiI MFI), in words” value is listed as “equally associated with cells”; the “T-cell viability / tolerability, in words” value was “slightly lower viability at higher dose of 2 μg/mL; also recorded: dose dependent toxicity towards T-cells; also recorded: well tolerated by T-cells at and below 1.0 μg/mL dose”.

As to `CCCCC/C=C\C/C=C\CCCCCCCC(=O)OC[C@H](COC(=O)CCN(C)CCO)OC(=O)CCCCCCC/C=C\C/C=C\CCCCC` [Lipid 12], in data set [4], the “GFP protein expression (% GFP+ cells, GFP MFI), in words” value is listed as “performed poorly” and the “T-cell viability / tolerability, in words” value is on record as “well tolerated by T-cells at all LNP doses tested”.

Consider `CCCCC/C=C\C/C=C\CCCCCCCC(=O)OC[C@H](COC(=O)CCN(CCO)CCO)OC(=O)CCCCCCC/C=C\C/C=C\CCCCC` [Lipid 13], for which, in data set [4], the “GFP protein expression (% GFP+ cells, GFP MFI), in words” value is reported as “performed poorly” and the “T-cell viability / tolerability, in words” value was “well tolerated by T-cells at all LNP doses tested”.

The record behind these values is patent US20220218614A1, “IONIZABLE CATIONIC LIPIDS AND LIPID NANOPARTICLES, AND METHODS OF SYNTHESIS AND USE THEREOF” (Tidal Therapeutics, Inc., priority 2020, published 2022).
